Patent US8647657B2, “Polymeric devices for controlled release of active agents” (Durect Corporation, priority 2003, dated 2014)

Legend:
FSH = assay: Blood level of FSH after time-released leuprolide acetate device; type: in vivo, human
Experimental: (§1) For example, a 30 mg time-released dose of leuprolide acetate can be administered to an adult subject. The leuprolide acetate active agent is provided in a biodegradable polymer system to supply a polymeric device for controlled release of the active agent. […] The leuprolide acetate active agent is incorporated within the polymer system such that the polymer system provides for controlled release of the agent from the device. When the device is administered to the subject, for example, when it is implanted, the device releases the active agent in a controlled fashion without a lag period, or with a minimal lag period. In this manner, the leuprolide can be gradually released over a period of several months. After a period of two weeks, the subject's blood level of LH may be undetectable and the subject's blood level of FSH may be approximately 5 mIU/mL.
(§2) In another example, a dose of 1.88 mg time-released dose of leuprolide acetate can be administered to a subject. The leuprolide acetate active agent is provided in a biodegradable polymer system to supply a polymeric device for controlled release of the active agent. […] The leuprolide acetate active agent is incorporated within the polymer system such that the polymer system provides for controlled release of the agent from the device. […]

LH = assay: Blood level of LH after time-released leuprolide acetate device; type: in vivo, human
Experimental: as §1, §2

[1] = 1.88 mg time-released dose in polymeric device, released over approximately one month
[2] = 30 mg time-released dose in polymeric device, adult subject, after two weeks

How did the FSH blood levels (FSH; [1]) turn out when `CCNC(=O)[C@@H]1CCCN1C(=O)[C@H](CCCNC(=N)N)NC(=O)[C@H](CC(C)C)NC(=O)[C@@H](CC(C)C)NC(=O)[C@H](Cc1ccc(O)cc1)NC(=O)[C@H](CO)NC(=O)[C@H](Cc1c[nH]c2ccccc12)NC(=O)[C@H](Cc1c[nH]cn1)NC(=O)[C@@H]1CCC(=O)N1` [leuprolide acetate] was run?
Its FSH blood levels is “undetectable levels”.

And the “blood level of FSH” value (FSH; [2])?
The value was “approximately 5 mIU/mL”.

And the LH blood levels (LH; [1])?
Its LH blood levels is “undetectable levels”.

What about the “blood level of LH” value (LH; [2]) of the same molecule?
Its value is “undetectable”.
